Source: publication PMC8076879 (Acta Pharmacologica Sinica, 2021)

Tests used:
[1] = Cytotoxicity in HEK293T cells, CCK8 assay; type: cell-based; details: human
[2] = cited from earlier work
[3] = Cytotoxicity in Huh-7 cells, CCK8 assay; type: cell-based; details: human
[4] = cited from earlier work; remark: listed apart in the source
[5] = test system: SARS-CoV-2; details: read-out: anti-SARS-CoV-2 EC50 (reported); cited from earlier work
[6] = in vitro; details: African green monkey

| SMILES | CC50 [1] | toxicity in animal toxicological experiments [2] | CC50 [3] | crossing of the blood-brain barrier [4] | EC50 [5] | CC50 [6] |
| --- | --- | --- | --- | --- | --- | --- |
| O[C@H]1[C@H]2c3cc4c(cc3CN3CCC(=C[C@@H]1O)[C@H]23)OCO4 [lycorine] | 1.04 ± 0.0734 µM | low toxicity and mild side effects | 0.834 ± 0.063 µM | able to cross the blood-brain barrier | 0.31 µM | > 1000 µM |
| CC[C@H]1CN2CCc3cc(OC)c(OC)cc3[C@@H]2C[C@@H]1C[C@H]1NCCc2cc(OC)c(OC)cc21 [emetine] | 0.0378 ± 0.000562 µM |  | 0.0334 ± 0.000617 µM |  | 0.46 µM | 2.17 ± 0.258 µM |
| CC[C@H]1CN2CCc3cc(OC)c(OC)cc3[C@@H]2C[C@@H]1C[C@H]1NCCc2cc(O)c(OC)cc21 [cephaeline] | 2 ± 0.468 µM |  | 3.04 ± 1.7 µM |  |  | 49 ± 46.3 µM |
